Results on 3 compounds are retold here after publication PMC5548696 (Bioorganic & medicinal chemistry letters, 2017).

One assay concerns H+/K+ ATPase. Particulars: cited from earlier work.
A further assay addresses human ENGase. Particulars: read-out: IC50, human ENGase inhibitors; earlier reports; cited from earlier work.
For another assay, the target named is T1, Recombinant human ENGase (Homo sapiens, UniProt Q8NFI3).
T1 sequence (Q8NFI3 1-743): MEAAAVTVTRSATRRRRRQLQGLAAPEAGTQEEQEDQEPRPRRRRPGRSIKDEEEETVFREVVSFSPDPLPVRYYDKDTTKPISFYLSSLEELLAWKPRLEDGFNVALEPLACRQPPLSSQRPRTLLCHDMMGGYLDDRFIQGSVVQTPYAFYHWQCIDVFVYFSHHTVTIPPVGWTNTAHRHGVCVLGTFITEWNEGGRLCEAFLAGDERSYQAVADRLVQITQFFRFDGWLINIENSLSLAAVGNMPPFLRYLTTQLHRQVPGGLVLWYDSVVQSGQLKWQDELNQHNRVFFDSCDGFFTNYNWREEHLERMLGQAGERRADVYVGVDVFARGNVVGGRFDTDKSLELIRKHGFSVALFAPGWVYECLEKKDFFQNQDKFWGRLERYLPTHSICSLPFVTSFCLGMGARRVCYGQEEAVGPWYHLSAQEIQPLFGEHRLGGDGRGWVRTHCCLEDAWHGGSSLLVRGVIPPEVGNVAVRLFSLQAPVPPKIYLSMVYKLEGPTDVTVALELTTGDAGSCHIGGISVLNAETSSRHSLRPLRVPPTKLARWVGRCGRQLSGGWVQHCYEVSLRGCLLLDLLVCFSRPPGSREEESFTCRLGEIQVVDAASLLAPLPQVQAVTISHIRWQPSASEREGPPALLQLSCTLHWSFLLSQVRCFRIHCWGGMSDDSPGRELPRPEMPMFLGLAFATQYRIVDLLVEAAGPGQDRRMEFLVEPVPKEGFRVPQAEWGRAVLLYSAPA
In kind it is biochemical. Particulars: 100 μM drug concentration; first round, 13 drugs.

With `COCCCOc1ccnc(C[S+]([O-])c2nc3ccccc3[nH]2)c1C` (stereo not drawn) [Rabeprazole], the target affinity with H+/K+ ATPase was ~ 70 nM.
With Man9GlcNAc-thiazoline, the IC50 (in general, the concentration that gives 50% inhibition) on human ENGase is 0.42 µM.
For `Cc1c(OCC(F)(F)F)ccnc1C[S+]([O-])c1nc2ccccc2[nH]1` (stereo not drawn) [Lansoprazole], the “inhibition of ENGase enzyme activity, preliminary ENGase inhibitor screening” value at Recombinant human ENGase is “inhibited ENGase enzyme activity”.
